ChEMBL document CHEMBL1156829 (Proc Natl Acad Sci U S A, 2008)

Assays:
Plasmodium falciparum [1] = test: NOVARTIS: Inhibition of Plasmodium falciparum W2 (drug-resistant) proliferation in erythrocyte-based infection assay; type: functional, organism-based; conditions: Plasmodium falciparum, W2; read-out: EC50
Plasmodium falciparum [2] = test: NOVARTIS: Inhibition of Plasmodium falciparum 3D7 (drug-susceptible) proliferation in erythrocyte-based infection assay; type: functional, organism-based; conditions: Plasmodium falciparum, 3D7
[3] = NOVARTIS: Cytotoxicity against human hepatocellular carcinoma cell line (Huh7); type: toxicity, cell-based, Huh-7; conditions: Huh7 cells (hepatocellular carcinoma cell line)

Row | Compound | EC50 (Plasmodium falciparum [1]) [nM] | EC50 (Plasmodium falciparum [2]) [nM] | CC50 [3] [nM]
1 | Nc1nc(N)c2c(Oc3ccccc3)cccc2n1 | 26.7 | 448 | > 10000
2 | C(#Cc1ccccc1)C[N+]1(CC#Cc2ccc(C#CC[N+]3(CC#Cc4ccccc4)CCCCC3)cc2)CCCCC1 | 252 | 493 | > 100000
3 | CCN(CC)S(=O)(=O)c1ccc(C(=O)NCc2nnc(SCC(=O)N3CCc4ccccc43)n2-c2ccccc2OC)cc1 | 26.7 | > 1250 | > 10000
4 | OCC(O)COc1cccc2ccccc12 (configuration not stated) | < 29.7 | > 1050 | > 11200
5 | CC(C)c1ccc(NC(=O)C=Cc2ccccc2Cl)cc1 | 45.6 | 102 | 17500
6 | O=C(Nc1ccc(NC2=NCCN2)cc1)c1ccc(C(=O)Nc2ccc(NC3=NCCN3)cc2)cc1 | 25.6 | 166 | > 10000
7 | O=C1CSC(=Nc2ccc(F)c(Cl)c2)N1c1ccc(F)c(Cl)c1 | 26.7 | > 1250 | > 10000
8 | O=C(CN1CCC(NC(=O)c2cccc(F)c2)CC1)NC1CC1 | 26.7 | > 1250 | > 10000
9 | CO[C@H]1C[C@H](C)Cc2cc(O)cc(c2)NC(=O)C(C)=CCC[C@H](OC)[C@@H](OC(N)=O)C(C)=CC(C)[C@H]1O (some centres not stated) | 26.7 | > 1250 | > 10000
10 | O=C(CCn1c(=S)oc2ccccc21)N1CCN(c2ccccc2)CC1 | 26.7 | > 1250 | > 10000
11 | CCCCN(CCCC)CC(O)c1cc(-c2ccc(Cl)cc2)nc2cc(Cl)ccc12 (configuration not stated) | 32.6 | 189 | > 12400
12 | COc1cc(OC)cc(C(=O)NCc2n[nH]c(=S)n2-c2cccc(C(F)(F)F)c2)c1 | 261 | 258 | > 100000
13 | Cc1cc(C)c2c(c1)OC(N)(C(Cl)(Cl)Cl)CC2=O (configuration not stated) | 260 | 435 | > 100000
14 | O=C(Nc1ccccc1)c1ccccc1OCC(O)Cn1c2ccccc2c2ccccc21 (configuration not stated) | 267 | 282 | > 100000
15 | CCCCNCC(O)(c1ccc(Cl)cc1)c1ccc(Cl)cc1 | 99.7 | 720 | 38500
16 | COc1ccccc1NC(=O)N(CCC(C)C)C(C)c1nc2ccccc2c(=O)n1-c1ccccc1Cl (configuration not stated) | < 25.8 | 817 | > 10000
17 | CSC(Cl)=C(NC(C)=O)[P+](c1ccccc1)(c1ccccc1)c1ccccc1 | 257 | 126 | > 100000
18 | CCCN1CCC(NC(c2ccccc2)c2ccc(Cl)cc2)CC1 (configuration not stated) | 51.9 | 753 | 20200
19 | CC1CCCCN1CCCNc1ncc(C(=O)NCC2CCCO2)c(NCCc2ccccc2)n1 (configuration not stated) | 26.7 | 918 | > 10000
20 | CC(C)CNC(=O)c1cnc(NCCCN)nc1NC1CCCC1 | 26.7 | 635 | > 10000
21 | CCn1c(CNc2ccc(Cl)cc2)nnc1SCC(=O)Nc1cccc(C)c1C | 26.7 | > 1250 | > 10000
22 | C=CCNC(=O)c1ccc2c(c1)N=C(CC(C)c1ccccc1)N(CCCN1CCCC1=O)C2 (configuration not stated) | 26.7 | > 1250 | > 10000
23 | CCCCCc1nnc(NC(=O)c2ccc(-c3ccc(OC)cc3)cc2)s1 | 26.7 | 457 | > 10000

Row | Compound | EC50 (Plasmodium falciparum [1]) [nM] | EC50 (Plasmodium falciparum [2]) [nM] | CC50 [3] [nM]
24 | O=C1Nc2ccc(Br)cc2C12NCCc1c2[nH]c2ccccc12 (configuration not stated) | 111 | 198 | 42200
25 | COc1c2occc2c(OC)c2c(=O)cc(C(Cl)(Cl)Cl)oc12 | 254 | 646 | > 100000
26 | CCOC(=O)c1ccc(NCc2c(C)[nH]c3ccccc3c2=O)cc1 | 254 | 342 | > 100000
27 | Cc1ccc2c(c1)-c1c(ssc1=S)C(C)(C)N2C(=O)c1ccco1 | 254 | 276 | > 100000
28 | Cc1ccccc1OCc1nnc(SCC(=O)Nc2ccc([N+](=O)[O-])cc2)n1C | 26.7 | > 1250 | > 10000
29 | CCn1c(SCC(=O)Nc2cccc(C)c2)nnc1-c1ccccc1 | 26.7 | > 1250 | > 10000
30 | CCN(CC)C(=O)c1cn(C2CCN(Cc3ccco3)CC2)nn1 | 26.7 | > 1250 | > 10000
31 | COc1ccc(-c2nc3ccccc3n2C2CCN(Cc3ccc(C)o3)CC2)cc1OC | 26.7 | > 1250 | > 10000
32 | CC(C)CC1=Nc2cc(C(=O)NCc3ccccc3)ccc2CN1Cc1cccnc1 | 26.7 | > 1250 | > 10000
33 | CCOc1cccc(C2=Nc3cc(C(=O)NC(C)C)ccc3CN2CC2CCCCC2)c1 | 26.7 | > 1250 | > 10000
34 | Cn1c(=NC(=O)c2ccc(S(=O)(=O)N3CCCCC3)cc2)sc2cc(Cl)ccc21 | 26.7 | > 1250 | > 10000
35 | CCCCCCN(C(=O)CCc1ccccc1)C(CC)c1nc2ccccc2c(=O)n1-c1ccc(Cl)cc1 (configuration not stated) | 26.7 | 1160 | > 10000
36 | CCOc1ccc(C=C(C#N)c2nc3ccccc3[nH]2)cc1OC | 263 | 516 | > 100000
37 | O=C1C(NC2CCCCC2)=C(N2CCOCC2)C(=O)c2ccccc21 | 116 | 139 | 46100
38 | Cc1ccc2[nH]c3c(NCCN4CCCCC4)ncnc3c2c1 | 99 | 216 | 39700
39 | CC(=O)c1c(C)n(CC(=O)Nc2cccc(C)c2)c2ccccc12 | 248 | 329 | > 100000
40 | COc1cccc(C(=O)NC(c2ccc(Cl)cc2)c2cc(Cl)c3cccnc3c2O)c1 (configuration not stated) | 268 | 2310 | > 100000
41 | CCC(CC)CN1CCC(O)(c2ccc3oc(C(=O)Nc4ccc5c(c4)OCO5)cc3c2)CC1 | 268 | 246 | > 100000
42 | CCOc1ccc(NC(=O)c2ccc(F)c(S(=O)(=O)NC3CCCCCC3)c2)cc1 | 135 | 1350 | 54800
43 | O=C(ON(C(=O)c1ccc(F)cc1)C1C2CC3CC(C2)CC1C3)c1ccc(F)cc1 (configuration not stated) | 26.7 | > 1250 | > 10000
44 | CCN(CC)Cc1cc2ccc(C)cc2n(CC(=O)OC)c1=O | 26.7 | > 1250 | > 10000
45 | O=C(NCC1CCCO1)c1cnc(NCCCn2ccnc2)nc1NCCc1ccccc1 (configuration not stated) | 26.7 | 1010 | > 10000
46 | CC(C)C(=O)N1CCOc2c(cc(-c3csc4ccccc34)cc2OCCc2ccccn2)C1 | 125 | 183 | 50600

Row | Compound | EC50 (Plasmodium falciparum [1]) [nM] | EC50 (Plasmodium falciparum [2]) [nM] | CC50 [3] [nM]
47 | CC(=O)C(=NNc1cc(C(F)(F)F)cc(C(F)(F)F)c1)C(C)=O | 26.7 | > 1250 | > 10000
48 | CC1=C(C(=O)OC2CCCC2)C(c2ccccc2F)C2=C(CC(c3ccccc3)CC2=O)N1 (configuration not stated) | 259 | 541 | > 100000
49 | CCCCNC(=O)CSCc1cnn(-c2ccccc2)c1-n1cccc1 | 257 | 253 | > 100000
50 | Oc1ccc(-c2ccnc3cc(Cl)ccc23)cc1CNC1CCCCC1 | 15.2 | 119 | 5940
51 | O=[N+]([O-])c1ccc(-n2ncc(-c3nc(-c4ccc(Cl)cc4)no3)c2C(F)(F)F)cc1 | 26.7 | > 1210 | > 10000
52 | N#Cc1c2c(c(N3CCN(Cc4ccccc4)CC3)n3c1nc1ccccc13)CCC2 | 248 | 311 | > 100000
53 | O=C(CS(=O)(=O)c1ccc(C(F)(F)F)cn1)NNS(=O)(=O)c1ccc(Cl)cc1 | 26.7 | > 1340 | > 10000
54 | CN(C)C=Nc1nn(C)cc1C(=O)Nc1ccc(F)c(Cl)c1 | 264 | > 7010 | > 100000
55 | Cc1ccccc1CN1CCN(C/C=C/c2ccccc2)CCC1=O | 26.7 | > 1250 | > 10000
56 | CCCCCCCCC(=O)Nc1c(C)cccc1C | 26.7 | > 1250 | > 10000
57 | Cc1ccccc1C=NNc1nc2ccccc2[nH]1 | 249 | 605 | > 100000
58 | CCC(c1nc2ccccc2c(=O)n1-c1ccc(Cl)cc1)N(Cc1ccccc1)C(=O)Nc1c(C(C)C)cccc1C(C)C (configuration not stated) | 26.7 | > 1420 | > 10000
59 | CCOc1c(Br)cc(C2C(C(=O)OC)=CN(C)C=C2C(=O)OC)cc1OC | 263 | 292 | > 100000
60 | CCN(CC)CCNC(=O)c1cc(-c2ccc(Cl)cc2)cc(-n2cnnn2)c1 | < 26.1 | 644 | > 10000
61 | CC[n+]1cccc2ccc3cccnc3c21 | 257 | 553 | > 100000
62 | COc1cc(OC)cc(C(=O)NCc2n[nH]c(=S)n2-c2ccc(Br)cc2)c1 | 252 | 325 | > 100000
63 | O=C(Nc1ccc2nc3n(c(=O)c2c1)CCCCC3)C(=O)N1CCN(c2cccc(Cl)c2)CC1 | 250 | 1810 | > 100000
64 | CC(C)(C)OCCN(CC(O)CN(Cc1ccccc1)C(=O)NC(c1ccccc1)c1ccccc1)S(=O)(=O)c1ccccc1 (configuration not stated) | < 26.4 | 1100 | > 10000
65 | CCN(CC)C(=O)c1cn(C2CCN(C(=O)CCc3cccc(OC)c3)CC2)nn1 | 26.7 | > 1250 | > 10000
66 | CC(=O)N1c2ccccc2NC2=C(C(=O)CCC2)C1c1ccc([N+](=O)[O-])cc1 (configuration not stated) | 26.7 | > 1250 | > 10000
67 | CCn1c(CSc2nc(C)cc(C)n2)nnc1SCC(N)=O | 26.7 | > 1250 | > 10000
68 | CCCCN(CCCC)CCCNc1ncnc2c1[nH]c1ccc(Cl)cc12 | 162 | 230 | 61800
69 | CCCCNCCN1CCN(c2ccc(OC)cc2)C[C@@H]1c1ccccc1 | 26.7 | > 1280 | > 10000
